Experimental findings from US12667546B2, “Methods for manipulating cell state transitions in cancer” (AGENCY FOR SCIENCE, TECHNOLOGY AND RESEARCH, priority 2018, dated 2026) are described below.

The subject of test [1] is NAMEC8. Briefly: Cell morphology of treated NAMEC8. The class given is cell-based, human. Particulars: bexarotene, TTNPB, SGC-CBP30, UNC0642, A-485 1 μM, LLY-283, GSK591 20 nM, C-IN-1 500 nM. The method, then: Human mammary epithelial cell lines (HMLE) were generated as described and immortalized using retroviral vectors to express the catalytic subunit of the human telomerase enzyme, hTERT and the SV-40 Large T antigen. NAMEC8 was generated as described. Briefly, HMLE cells were grown to 50% confluency, followed by differential trypsinization for 1 minute with 0.05% trypsin. Detached cells were carefully collected and re-plated at approximately 200 cells per well of a 24-well plate. Upon expansion, wells were screened for populations that were morphologically mesenchymal and can be stably propagated. Clonal and non-clonal NAMEC cell lines were generated. NAMEC8 is a non-clonal line derived from at least 200 mesenchymal cells. HMLE cells and NAMECs were maintained in MEGM (Lonza).

The test system of test [2] is NAMEC8. In words: Expression of EMT and lineage markers (qRT-PCR, immunoblot, immunofluorescence) in NAMEC8. The note with it: transcript and protein. The class given is cell-based, human. The method, then:
Cells were rinsed twice in ice-cold PBS. Total RNA was extracted using Trizol (Invitrogen) and column-purified with RNeasy kits (Qiagen). cDNA synthesis was performed with 500 ng of total RNA at 37° C. for 2 h using the SuperScript III First-Strand Synthesis System (Thermo Fisher Scientific), and subsequently diluted 5-fold. mRNA levels were measured with gene-specific primers listed below using the ABI Prism 7900HT Sequence Detection System 2.2 (Applied Biosystems). Results were normalized to GAPDH and analyzed using SDS 2.2 software.
Cells were harvested and scraped from culture dishes in ice-cold PBS. They were then centrifuged at 12000 rpm for 5 min at 4° C. The pellets were then snap frozen in liquid nitrogen or lysed in ice-cold RIPA lysis buffer (Thermo Scientific) and left on ice for 30 min. Subsequently, the lysates were centrifuged at 12000 rpm for 10 min at 4° C. The supernatants were then aspirated and placed in fresh tubes. Protein concentrations were determined using Coomaisse Blue. 50-80 μg total protein was mixed with NuPAGE™ LDS sample buffer and heated at 70° C. for 10 min. Samples were loaded into NuPAGE™ 4-12% Bis-Tris gels (precast polyacrylamide gel; Invitrogen™). Gel electrophoresis was done at 200V for 1.5 h and then blotted onto nitrocellulose membranes (Trans-Blot Turbo™ transfer pack; Bio-Rad). The membranes were blocked with 5% skimmed milk in Tris-buffered saline (TBS; 1st BASE) with 0.1% Tween-20 (Santa Cruz), and then incubated with primary antibodies overnight at 4° C. Thereafter, the membranes were incubated with a horseradish peroxidase (HRP)-conjugated secondary antibody at room temperature for one hour. Finally, the immunoreactive proteins were visualized by using an enhanced chemiluminescent (ECL) reagent (Thermo Scientific, 34075) with the Chemidoc™ Imager (Bio-Rad, 17001401).
Cell cultures were fixed in 4% paraformaldehyde and permeabilized with 0.25% Triton X-100, followed by blocking with 1% bovine serum albumin in PBST. Cells were incubated in specific primary antibodies, followed by the appropriate secondary antibodies conjugated with Alexa Fluor-488 or -594 (Molecular Probes). Cell nuclei were then stained with DAPI and then viewed and imaged with an Axio Observer D1 epifluorescence microscope with a built-in AxioCamMR3 camera (Zeiss), using the optimal filters and 100-200× magnifications.
(In general: Quantitative PCR measures a nucleic acid by following its amplification.)

Test [3] has as its system SERPINE1prom-Luc reporter in NAMEC8 cells. In words: Dual-Glo luciferase assay of SERPINE1prom-Luc reporter (FF/Ren). The class given is cell-based, human. Particulars: for dose-dependent change of SERPINE1 promoter activity: dose response (metabolic hits 10 nM to 2 μM; epigenetic hits six concentrations); for activity at 10 µM: Homo sapiens, 72 h, read-out: Avr FF/Renilla from DMSO. An excerpt:
pGreenFire1-mCMV was cut using ClaI and SpeI and gel purified. Promoter sequences of genes Zeb1, Serpine1, CDH1, CD24, CD44, CD166 were amplified from human genomic DNA with pre-designed primers containing ClaI and SpeI restriction cut sites using AccuPrime Taq DNA Polymerase (Thermo Fisher Scientific). PCR products were then digested with restriction enzymes and gel-purified. Vector was ligated with PCR insert using Quick Ligase (Fermentas) and transformed into Stb12 competent cells. Colonies were picked and inoculated into TB media with ampicillin. Plasmids were then isolated using a plasmid miniprep kit (Qiagen) and sent for sequencing (1 stBASE Laboratories). After verifying the plasmid sequence, transfection into HEK293 cells was carried out to generate lentivirus. Transfection was carried out using FuGENE 6 (Promega). Viral supernatant was harvested at 24 h and 48 h. NAMEC8 cells were then infected twice with virus using polybrene ([…]) and checked for good transduction efficiency using Dual-Glo Luciferase System (Promega).
Stock plates of compound libraries were kindly prepared by GIS CHiP facility at 1 mM concentration in DMSO. NAMEC8-SERPINE1prom-Luc cells were seeded into 384 well plates at a density of 700 cells/well in a total volume of 50 μl, using an automated dispensing system (BioTek). 0.5 μl of compounds were then added to the wells the following day using a robotic pin transfer with a Bravo workstation (Agilent Technologies). Cells were then grown for 3 days and promoter-luciferase activity was measured using the Dual-Glo Luciferase System (Promega).
Assay was carried out according to manufacturer's instructions. To measure luciferase activity in 384 well plates, media was first removed from the plate. Firefly luciferase activity was determined by adding 30 μl Dual-Glo Luciferase substrate (Promega) to the wells and incubated for 10 min before measuring luminescence using a TECAN M1000 Pro plate reader. 15 μl Dual-Glo Stop & Glo substrate was then added to the wells, incubated for 10 min and measuring luminescence on the plate reader to determine Renilla luciferase activity. Promoter luciferase activity is then calculated by taking Firefly luciferase over Renilla luciferase.

Test [4] concerns NAMEC8. Briefly: Mammosphere assay, NAMEC8. The note with it: NAMEC8, pre-treated cells. It counts as cell-based, human. How it is done:
For mammosphere culture, cells were seeded onto 96-well ultralow-adherence plates at 700 cells/well in Mammocult medium (Stem Cell Technologies) supplemented with 4 μg/ml heparin, 0.5 μg/ml hydrocortisone and 1% methylcellulose. Spheres (>100 μm) were counted at 7-10 days later.

For test [5], the system named is NAMEC8-SERPINE1prom-Luc cells. In words: Renilla-luciferase (constitutive CMV promoter) readout for cell numbers. It counts as cell-based, human. The note with it: primary screen, Renilla as readout for cell numbers, relative to DMSO; for viability at 10 µM: Homo sapiens, 72 h, read-out: % Avr Renilla from DMSO.
In test [6] the test system is MCF7-Ras. Briefly: Tumor growth of ex vivo pre-treated MCF7-Ras injected subcutaneously. Particulars: ex vivo treatment before injection. It counts as in vivo, NSG mice. How it is done: (§1) All animal experiments were approved by the Agency for Science Technology and Research Singapore-Biological Resource Centre IACUC (Protocol number 140940). For pre-treated SUM159 and MCF7-Ras cells, 1×10^6 cells were suspended in 100 μl media containing 50% matrigel and injected subcutaneously into both flanks of female NSG mice. The NSG mice were checked for tumor by palpation once a week and tumors were harvested when they reached ˜15 mm in diameter. For treatment in NSG mice, 1×10^5 NAMEC8-Ras cells were suspended in 100 μl media containing 50% matrigel and injected subcutaneously into both flanks of NSG mice. The NSG mice were checked for tumor formation by palpation and when tumors were about 3 mm, mice were randomized into two groups: vehicle (5% DMSO in corn oil) and treatment (Bexarotene, 100 mg/kg/day oral dosing). Tumor size was measured every week using Vernier calipers and mice were sacrificed when tumors reached ˜15 mm or after ˜4 weeks of treatment. For patient-derived cells, 2×10^6 cells were injected subcutaneously per site in NSG mice.

Test [7] relates to SUM159. Briefly: Cell morphology of treated SUM159. It counts as cell-based, human. Particulars: bexarotene, TTNPB 1 μM. How it is done:
HMLE-Twist-ER cells were generated as described. For EMT-induction, 100 nM of 4-hydroxytamoxifen in ethanol was added to the culture medium every 48 h to induce Twist expression. Control cells were treated with ethanol. MCF7-Slug+Sox9 cells were generated as previously described. HMLE-Zeb1 cells were generated by infection with FUW-Zeb1 and rTTA. Doxycycline was added to the culture medium every 48 h to induce Zeb1 expression. To generate tumorigenic cells from NAMEC8, cells were infected with pWZL-Blast-Ras. MCF7, MCF7-Ras, SUM159 were maintained as previously described. All cell cultures were maintained at 37° C. with 5% CO2.

The test system of test [8] is SUM159. Briefly: Tumor growth of ex vivo pre-treated SUM159 injected subcutaneously. The class given is in vivo, NSG mice. Particulars: short-term (14 days) ex vivo treatment before transplantation. The method, then:
as §1

Test [9] relates to Estrogen response element (ERE)-luciferase reporter in NAMEC8. Briefly: ERE-luciferase activity assay. It counts as cell-based, human. The method, then:
ERE luciferase construct was kindly provided by Alan Prem Kumar, CSI, Singapore. To measure the ERE-luciferase activity, cells were seeded 24 h before transfection. ERE-luciferase (1 μg) and NSV-Renilla (0.1 μg) were packaged using Lipofectamine 2000 and transfected into NAMEC8. 24 h post-transfection, cells were reseeded into 96 well plates for drug treatment. Firefly and Renilla luciferase activities were measured with the Dual-Glo Luciferase System (Promega) 24 h post-treatment.

Test [10] relates to SUM159 PACR cells. In words: Cell viability IC50 in SUM159 PACR cells. The note with it: SUM159 PACR vs SUM159 PT.
Where [11] appears, read: primary screen, NAMEC8-SERPINE1prom-Luc cells grown 3 days with compound, relative to DMSO.

The structures appear in SMILES notation. Where a name gives a salt, the structure may show the parent alone. Read-outs that look alike come from different tables or passages of the source.

Consider `CN(C)c1ccc(C2Nc3ccc4ccccc4c3C3=C2C(=O)CC(C)(C)C3)cc1Br` (centres unmarked) [Glutaminase C-IN-1], for which the cell morphology entry in [1] was “morphological change from a scattered distribution typically observed in mesenchymal cells to tight clusters of epithelial islands”. Moreover, in test [2], the “expression of EMT and basal/luminal markers” value was “mesenchymal proteins Zeb1, fibronectin, Slug and Snail were decreased, epithelial E-Cadherin was increased”. In addition, the entries for the “dose-dependent change of SERPINE1 promoter activity” value in test [3] and in test [3] (listed as C-IN-1) were “dose dependent decrease in SERPINE1 promoter activity” and “dose-response effect of decreasing SERPINE1 promoter activity”, respectively.

In the case of `Nc1ncnc2c1ccn2[C@@H]1O[C@H]([C@H](O)c2ccccc2)[C@@H](O)[C@H]1O` [LLY-283], the “expression of EMT and basal/luminal markers” value in test [2] is recorded as “no apparent change was observed”. In addition, in [4], the mammosphere formation entry is “significantly reduce the size and number of spheres formed”.

Regarding `COc1cc2c(NC3CCN(C(C)C)CC3)nc(N3CCC(F)(F)CC3)nc2cc1OCCCN1CCCC1` [UNC0642], in [2], the “expression of EMT and basal/luminal markers” value is recorded as “no apparent change was observed”.

Consider `CC1=C(/C=C/C(C)=C/C=C/C(C)=C/C(=O)O)C(C)(C)CCC1` [Tretinoin (Aberela), Tretinoin], for which the viability at 10 µM in test [5] was determined as 87%. Further, the tumor cell growth entry in test [6] is “no impact on the tumor cell growth was observed”. The activity at 10 µM in [3] (setting [11]) worked out at 50%.

On to `N[C@@H](CC(=O)O)C(=O)O` [L-Aspartic acid], for which the viability at 10 µM in test [5] was 99.3%. For the same compound, the activity at 10 µM in test [3] (setting [11]) worked out at 71%.

For `C/C(=C\c1ccc(C(=O)O)cc1)c1ccc2c(c1)C(C)(C)CCC2(C)C` [TTNPB], the “% Avr Renilla from DMSO” value in test [5] was found to be 58.46%. The cell morphology result in test [7] is “dramatic change in morphology from scattered, spindle and fibroblastic-like cells to an epithelial-like morphology”; in test [1], “dramatic change in morphology from scattered, spindle and fibroblastic-like cells to an epithelial-like morphology”. For the same compound, the tumorigenic potential entry in test [8] is “severely crippled their tumorigenic potential for up till seven weeks post-transplantation”. The ERE-luciferase reporter activity entry in [9] was “increased”. The “Avr FF/Renilla from DMSO” value in test [3] (setting [11]) was determined as 0.19.

As to `CC(=O)O[C@H]1C(=O)[C@@]2(C)[C@H]([C@H](OC(=O)c3ccccc3)[C@]3(O)C[C@H](OC(=O)[C@H](O)[C@@H](NC(=O)c4ccccc4)c4ccccc4)C(C)=C1C3(C)C)[C@]1(OC(C)=O)CO[C@@H]1C[C@@H]2O` [paclitaxel], the “increase in paclitaxel-resistance, PACR vs parental (PT) cells” value in [10] is given as > 20 fold.

As for `CCO.N#CC(=C(/N)Sc1ccccc1N)/C(C#N)=C(\N)Sc1ccccc1N` [U0126-EtOH], the “% Avr Renilla from DMSO” value in test [5] is on record as 76.21%. For the same compound, the “Avr FF/Renilla from DMSO” value in test [3] (setting [11]) stood at 0.62.

Turning to `CCCCC[C@H](O)/C=C/[C@H]1C(=O)C[C@H](O)[C@@H]1C/C=C\CCCC(=O)NCCO` [Prostaglandin D2 Ethanolamide], the “% Avr Renilla from DMSO” value in test [5] was 65.62%. For the same compound, the “Avr FF/Renilla from DMSO” value in test [3] (setting [11]) is recorded as 0.55.

`CC[C@H](CO)Nc1nc(NCc2ccccc2)c2ncn(C(C)C)c2n1` [Roscovitine (Seliciclib, CYC202), Roscovitine]: in test [5], the viability at 10 µM came to 53.7%. For the same compound, the activity at 10 µM in test [3] was found to be 63%.

Consider `O=C(NC[C@H](O)CN1CCc2ccccc2C1)c1ccnc(NC2CCC2)c1` [GSK591], for which the “expression of EMT and basal/luminal markers” value in test [2] is “no apparent change was observed”. For the same compound, in test [4], the mammosphere formation result is “significantly reduce the size and number of spheres formed”.

Consider `CCSC(=N)Nc1ccc(C(F)(F)F)cc1` [S-ethyl N-[4-(trifluoromethyl)phenyl] Isothiourea (hydrochloride)], for which the viability at 10 µM in test [5] came out at 76.8%. The activity at 10 µM in test [3] (setting [11]) is 59%.
